Earlier results, collected in patent US20130129827A1, “EXTENDED RELEASE PHARMACEUTICAL COMPOSITIONS OF PALIPERIDONE AND PROCESSES OF PREPARATION THEREOF” (RANBAXY LABORATORIES LIMITED, priority 2009, published 2013).

Settings: background statement, species not given

- half-life: about a day
Structure (SMILES): Cc1nc2n(c(=O)c1CCN1CCC(c3noc4cc(F)ccc34)CC1)CCCC2O (racemic) [Paliperidone, (±)-3-[2-[4-(6-fluoro-1,2-benzisoxazol-3-yl)-1-piperidinyl]ethyl]-6,7,8,9-tetrahydro-9-hydroxy-2-methyl-4H-pyrido[1,2-a]pyrimidin-4-one]
